Test results: article PMC7999199, “Novel Cationic Meso-Arylporphyrins and Their Antiviral Activity against HSV-1” (Pharmaceuticals, 2021)
Where two headings read alike, the source gives them in different places.

Experiments:
HSV-1 (strain RD) = assay: Virucidal effect on HSV-1: virus incubated 2 h with compound, residual titer by CPE in Vero cells; assay type: cell-based, herpes simplex virus type 1; settings: for IC50: Human alphaherpesvirus 1, Vero, HSV-1
Experimental: Next, the virucidal effect of the drugs on HSV-1 in PBS and Pluronic F-127 was studied, in accordance with CC50 (Figure 5). The virucidal activity tests were performed by incubating HSV-1 with different concentrations of 3a,b and TMePyP for 2 h at a temperature of 36.8 °C and 5% CO2. Untreated viral suspensions were used as a control. Then, samples were added to a Vero culture seeded in 96-well plates, and the residual virus content was evaluated by developing a cytopathic effect on the fourth day of cultivation.
HSV-1 at tenfold dilutions DMEM-1% FCS (900 µL) was incubated with different concentration of the compounds (100 µL) at the final concentration ranging from 3 µM to 100 µM in DMEM-1% FCS or without of compound, each sample in volume 1 mL, for 2 h at 36.8 °C in 5% CO2 atmosphere. After treatment, the samples were applied to the Vero cell (the day before, cells were seeded at the rate of 15,000 cells/well in […] DMEM-5% FCS in 96-well plates) monolayers in 96-well plates (100 µL/well), and, after 4 days of cultivation at 36.8 °C in 5% CO2 atmosphere, titers were calculated based on the development of CPE, and the inhibitory activity of each compounds was calculated in relation to the control (HSV-1 without compounds). Data are reported as means of three independent assays, each run in triplicate.
Figure 5 Virucidal activity of 3a (a), 3b (b), TMePyP (c) dissolved in PBS and Pluronic F-127 regarding HSV-1. The results are presented as the virus titer percentage, with the porphyrin regarding the virus titer in control, which was taken as 100%. Each point represents the mean ± deviation of three experiments with three replicates.
Fig. 15S. Virucidal activity of 3a (A), 3b (B), TMePyP (C) compounds dissolved in PBS and Pluronic F127 regarding to HSV-1. HSV-1 at tenfold dilutions DMEM-1%FCS was incubated with different concentration of the compounds ranging from 3 µM/L to 100 µM/L in DMEM-1% FCS or without of compound , each sample in volume 1mL, for 2 hours at 36.8°C in 5% CO 2 atmosphere. After treatment the samples were applied to the Vero DMEM-5%FCS in 96 wells plates) monolayers in 96 wells plates (100 µL/well). and after 4 days of cultivation at 36.8 °C in 5% CO 2 atmosphere titers were calculated based on the development of CPE and the inhibi-tory activity of each compounds was calculated in relation to the control (HSV -1 without compounds). Data are reported as means of three independent assays, each run in tripli cate. The results were processed using the GraphPad Prism 5 program. […]

[1] = Vero cell viability, MTT test, 72 h; assay type: cell-based, African green monkey; settings: African green monkey, Vero cells, MTT; for viability at 72 h, 0.39 µM: 0.39 µM/L; for viability at 72 h, 0.39 µM / viability at 72 h, 0.78 µM / viability at 72 h, 1.56 µM / viability at 72 h, 3.13 µM / viability at 72 h, 6.25 µM / viability at 72 h, 12.5 µM / viability at 72 h, 25 µM / viability at 72 h, 50 µM / viability at 72 h, 100 µM: Vero, 3 days, read-out: Viability % ±s.d.; for viability at 72 h, 0.78 µM: 0.78 µM/L; for viability at 72 h, 1.56 µM: 1.56 µM/L; for viability at 72 h, 3.13 µM: 3.13 µM/L; for viability at 72 h, 6.25 µM: 6.25 µM/L; for viability at 72 h, 12.5 µM: 12.50 µM/L; for viability at 72 h, 25 µM: 25 µM/L; for viability at 72 h, 50 µM: 50 µM/L; for viability at 72 h, 100 µM: 100 µM/L; for CC50 at 72 h: dissolved in PBS
Experimental: (§1) Before testing antiviral activity, the effect of porphyrins dissolved in PBS and Pluronic F-127 on the viability of Vero cells was evaluated. Cells were incubated for 72 h using different concentrations of porphyrins (0.39–100 μM). Viability was assessed using the MTT test (Figure S13, Table S1, Supplementary Information). The viability of Vero cells depends on the porphyrins’ structure and formulation.
(§2) Cell viability was assessed by MTT reduction assay. Briefly, confluent monolayer Vero cells in 96-well plates (15000 cells/well) were incubated for 72 h with different concentrations of the compounds ranging from 0.39 µM to 100 µM in DMEM-1% FCS at 36.8 °C in 5% CO2 atmosphere. Next, cells were incubated for 1 h with 1.0 mg/mL of 3-(4,5-dimethylthiazol-2-y1)-2,5-diphenyltetrazolium bromide (MTT, PanEco, Moscow, Russia) at 36.8 °C, and then the solution was removed, and precipitated formazan was diluted in DMSO (PanEco, Moscow, Russia). The solution was read on a spectrophotometer at 540 nm. For each concentration, the average cell viability was calculated from the data of three experiments with three replicates each and was expressed as a percentage compared to the untreated cells (100%).
(§3) Table s1. Vero cell viability after exposure to 3a, 3b, TMEPyP compounds dissolved in PBS and Pluronic F-127. Different concen-
(§4) trations of compounds were applied to the cell monolayer and after incubation for 3 days, the number of living cells was calculated
(§5) in the MTT test. Each point represents the mean ± standard deviation of three experiments with […] each. n.d. –not done.
(§6) Compound Concentration, µM/L Viability % ±s.d.

Vero cells = assay: Vero cell viability, MTT test, 72 h; assay type: cell-based, African green monkey; settings: Vero cells; for CC50: Pluronic F-127 (F127) micellar formulation, MTT, 72 h
Experimental: as §1, §2, §3, §4, §5, §6

[2] = Pluronic F-127 (F127) micellar formulation

Structure (SMILES): O=C(CC[n+]1ccccc1)Oc1ccc(-c2c3nc(c(-c4ccc(OC(=O)CC[n+]5ccccc5)cc4)c4ccc([nH]4)c(-c4ccc(OC(=O)CC[n+]5ccccc5)cc4)c4nc(c(-c5ccc(OC(=O)CC[n+]6ccccc6)cc5)c5ccc2[nH]5)C=C4)C=C3)cc1 [3a]
- IC50 (HSV-1 (strain RD); [2]): 99.8 µM
- concentration showing a virucidal effect (HSV-1 (strain RD); PBS and Pluronic F-127, only at the maximum concentration): 100 µM
- viability at 72 h, 0.39 µM ([1]; +F127 (Pluronic F-127)): 93 ± 4.6%
- viability at 72 h, 0.78 µM ([1]; +F127 (Pluronic F-127)): 99.2 ± 4.2%
- viability at 72 h, 1.56 µM ([1]; +F127 (Pluronic F-127)): 95.6 ± 4.2%
- viability at 72 h, 3.13 µM ([1]; +F127 (Pluronic F-127)): 90.8 ± 2.3%
- viability at 72 h, 6.25 µM ([1]; +F127 (Pluronic F-127)): 90.3 ± 7.8%
- viability at 72 h, 12.5 µM ([1]; +F127 (Pluronic F-127)): 91.7 ± 2.8%
- viability at 72 h, 25 µM ([1]; +F127 (Pluronic F-127)): 89.1 ± 4.1%
- viability at 72 h, 50 µM ([1]; +F127 (Pluronic F-127)): 92.9 ± 2%
- viability at 72 h, 100 µM ([1]; +F127 (Pluronic F-127)): 80.4 ± 1.8%
- viability at 72 h, 0.39 µM ([1]; -F127 (PBS)): 94.6 ± 2.9%
- viability at 72 h, 0.78 µM ([1]; -F127 (PBS)): 102 ± 4.2%
- viability at 72 h, 1.56 µM ([1]; -F127 (PBS)): 108 ± 15.4%
- viability at 72 h, 3.13 µM ([1]; -F127 (PBS)): 106 ± 4.5%
- viability at 72 h, 6.25 µM ([1]; -F127 (PBS)): 105 ± 8.7%
- viability at 72 h, 12.5 µM ([1]; -F127 (PBS)): 94.7 ± 5.1%
- viability at 72 h, 25 µM ([1]; -F127 (PBS)): 90.9 ± 10%
- viability at 72 h, 50 µM ([1]; -F127 (PBS)): 91.9 ± 2.2%
- viability at 72 h, 100 µM ([1]; -F127 (PBS)): 76.8 ± 6.9%
- CC50 at 72 h [1]: > 100 µM
- CC50 (Vero cells): > 100 µM
- toxic concentration (Vero cells; used to choose concentrations for the virucidal test): > 100 µM

Structure (SMILES): C[n+]1ccc(-c2c3nc(c(-c4cc[n+](C)cc4)c4ccc([nH]4)c(-c4cc[n+](C)cc4)c4nc(c(-c5cc[n+](C)cc5)c5ccc2[nH]5)C=C4)C=C3)cc1 [TMePyP, 5,10,15,20-tetrakis(1-methyl-4-pyridinio)porphyrin tetraiodide, reference compound]
- IC50 (HSV-1 (strain RD); [2]): 13.3 µM
- IC50 (HSV-1 (strain RD); dissolved in PBS): 2.3 µM
- viability at 72 h, 0.39 µM ([1]; +F127 (Pluronic F-127)): 82.9 ± 5.4%
- viability at 72 h, 0.78 µM ([1]; +F127 (Pluronic F-127)): 79.9 ± 2.3%
- viability at 72 h, 1.56 µM ([1]; +F127 (Pluronic F-127)): 90.2 ± 9.7%
- viability at 72 h, 3.13 µM ([1]; +F127 (Pluronic F-127)): 95.2 ± 6%
- viability at 72 h, 6.25 µM ([1]; +F127 (Pluronic F-127)): 90.4 ± 2.7%
- viability at 72 h, 12.5 µM ([1]; +F127 (Pluronic F-127)): 83 ± 8.6%
- viability at 72 h, 25 µM ([1]; +F127 (Pluronic F-127)): 95.2 ± 3.2%
- viability at 72 h, 50 µM ([1]; +F127 (Pluronic F-127)): 114 ± 6.2%
- viability at 72 h, 100 µM ([1]; +F127 (Pluronic F-127)): 104 ± 1.2%
- viability at 72 h, 3.13 µM ([1]; -F127 (PBS)): 101 ± 5%
- viability at 72 h, 6.25 µM ([1]; -F127 (PBS)): 98.5 ± 5%
- viability at 72 h, 12.5 µM ([1]; -F127 (PBS)): 97.4 ± 4.6%
- viability at 72 h, 25 µM ([1]; -F127 (PBS)): 95.3 ± 5.3%
- viability at 72 h, 50 µM ([1]; -F127 (PBS)): 93.7 ± 5.5%
- viability at 72 h, 100 µM ([1]; -F127 (PBS)): 89.6 ± 6.8%
- CC50 at 72 h [1]: > 100 µM
- CC50 (Vero cells): > 100 µM
